From US8242275B2, “Bicyclic pyrazole compounds as antibacterial agents” (Janssen Pharmaceutica NV, priority 2005, dated 2012)
In brackets after ≈: the same amount, converted by molar mass.

Legend:
[1] = tested on: E. coli KL-16 (GSC strain 4245); experiment: In vitro antibacterial activity (MIC assay), broth microdilution; type: cell-based; settings: Escherichia coli
Outline: (§1)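 Broth microdilution per NCCLS M7-A5: 11-point 2-fold compound dilutions from DMSO stocks, inoculum about 5×10^5 CFU/mL, incubation 35° C for 16–24 h. MIC scored visually against no-compound growth controls, in μg/mL.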

[2] = tested on: S. aureus ATCC13709; experiment: as above; type: cell-based; settings: Staphylococcus aureus, ATCC13709; read-out: S. aureus ATCC13709 MIC
Outline: as §1

[3] = tested on: S. pneumoniae ATCC49619; experiment: as above; type: cell-based; settings: Streptococcus pneumoniae, ATCC49619; read-out: S. pneumoniae ATCC49619 MIC
Outline: as §1

[4] = biological target: T1, E. coli DNA gyrase (Escherichia coli, UniProt P0AES4+P0AES6); experiment: DNA gyrase inhibition assay (supercoiling); type: biochemical; settings: E. coli DNA gyrase supercoiling, visual inspection of gels; read-out: DNA Gyrase IC50 (converted)
T1 construct: purchased John Innes Enterprises Ltd. (John Innes Centre, UK)
T1 sequence (P0AES4 whole entry, one chain of several): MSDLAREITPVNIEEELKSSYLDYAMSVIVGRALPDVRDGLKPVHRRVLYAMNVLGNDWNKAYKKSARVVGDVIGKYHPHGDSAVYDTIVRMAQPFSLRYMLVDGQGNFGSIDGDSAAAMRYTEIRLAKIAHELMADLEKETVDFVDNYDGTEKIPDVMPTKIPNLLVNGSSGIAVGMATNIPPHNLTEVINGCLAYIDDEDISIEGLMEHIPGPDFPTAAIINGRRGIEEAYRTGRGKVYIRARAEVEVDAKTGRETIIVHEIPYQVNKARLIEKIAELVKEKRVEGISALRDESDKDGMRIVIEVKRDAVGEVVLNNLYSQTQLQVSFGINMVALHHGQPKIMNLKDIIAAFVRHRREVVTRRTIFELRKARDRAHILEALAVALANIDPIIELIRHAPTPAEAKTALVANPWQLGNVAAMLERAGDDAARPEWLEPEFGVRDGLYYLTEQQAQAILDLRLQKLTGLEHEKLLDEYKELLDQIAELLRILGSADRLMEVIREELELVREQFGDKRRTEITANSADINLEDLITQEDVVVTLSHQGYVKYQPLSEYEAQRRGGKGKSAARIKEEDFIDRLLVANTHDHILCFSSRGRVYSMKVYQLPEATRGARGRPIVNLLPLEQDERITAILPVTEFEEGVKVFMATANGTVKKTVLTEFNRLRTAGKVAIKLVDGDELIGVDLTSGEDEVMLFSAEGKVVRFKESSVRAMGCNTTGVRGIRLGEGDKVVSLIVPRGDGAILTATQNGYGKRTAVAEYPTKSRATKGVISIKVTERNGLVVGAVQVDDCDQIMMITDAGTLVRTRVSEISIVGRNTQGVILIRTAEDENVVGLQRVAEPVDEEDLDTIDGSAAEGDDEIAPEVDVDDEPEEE
Description: Inhibition of the supercoiling activity of E. coli DNA gyrase was determined using enzymes, buffers and substrates received from John Innes Enterprises Ltd. (John Innes Centre, UK). The reactions were performed according to the manufacturer's directions, with the following modifications.
DNA supercoiling reactions were carried out in a total reaction volume of 20 μL containing 250 ng of relaxed pBR322, 35 mM Tris-HCl (pH 7.5), 24 mM KCl, 4 mM MgCl2, 2 mM dithiothreitol, 1.8 mM spermidine, 1 mM ATP, 6.5% glycerol and 100 μg/mL albumin. Compounds diluted in 10% DMSO were added to the reaction mixture to reach a final concentration of 0.5% DMSO. Enzyme was diluted to […] in a solution of 50 mM Tris-HCl (pH 7.5), 100 mM KCl, 2 mM dithiothreitol, 1 mM EDTA, and 50% glycerol. Diluted enzyme (0.2 unit) was added to each reaction.
The reactions were incubated at 37° C. for 30 min. The reactions were then cooled to 0° C., followed by addition of 3 μL of 40% glycerol, 100 mM Tris-HCl (pH 7.5), 50 mM EDTA, 0.5% SDS and 0.1% bromophenol blue. Samples were separated on 1.0% agarose gels. Gels were stained with Ethidium bromide and photographed with a Stratagene Eagle Eye II.

| SMILES | MIC [1] [µg/mL] | MIC [2] [µg/mL] | MIC [3] [µg/mL] | IC50 [4] [µM] |
| --- | --- | --- | --- | --- |
| COc1ccc2nccc(-n3cc4c(n3)CCC(NC(=O)/C=C/c3ccc(F)cc3F)C4)c2n1 (centres unmarked) [Example 120, 3-(2,4-Difluoro-phenyl)-N-[2-(6-methoxy-[1,5]naphthyridin-4-yl)-4,5,6,7-tetrahydro-2H-indazol-5-yl]-acrylamide] | > 128 | 0.125 (≈ 0.271 µM) | 4 (≈ 8.67 µM) | 4.33 |
| COc1ccc2nccc(-n3cc4c(n3)CCC(NC/C=C/c3ccc(F)cc3)C4)c2c1 (centres unmarked) [Example 57, [3-(4-Fluoro-phenyl)-allyl]-[2-(6-methoxy-quinolin-4-yl)-4,5,6,7-tetrahydro-2H-indazol-5-yl]-amine] | 64 (≈ 149 µM) | 1 (≈ 2.33 µM) | 2 (≈ 4.67 µM) | 4.67 |
| COc1ccc2nccc(-n3cc4c(n3)CCC(NC(=O)/C=C/c3cc(F)ccc3C(F)(F)F)C4)c2n1 (centres unmarked) [Example 91, 3-(5-Fluoro-2-trifluoromethyl-phenyl)-N-[2-(6-methoxy-[1,5]naphthyridin-4-yl)-4,5,6,7-tetrahydro-2H-indazol-5-yl]-acrylamide] | > 128 | 4 (≈ 7.82 µM) | > 128 | > 31.3 |
| COc1ccc2nccc(-n3cc4c(n3)CCC(NCc3cc5c(cc3Cl)OCCO5)C4)c2n1 (centres unmarked) [Example 104, (7-Chloro-2,3-dihydro-benzo[1,4]dioxin-6-ylmethyl)-[2-(6-methoxy-[1,5]naphthyridin-4-yl)-4,5,6,7-tetrahydro-2H-indazol-5-yl]-amine] | 8 (≈ 16.7 µM) | 0.125 (≈ 0.262 µM) | 1 (≈ 2.09 µM) | 1.05 |
| COc1ccc2nccc(-n3cc4c(n3)CCC(NC(=O)c3ccc([N+](=O)[O-])cc3F)C4)c2c1 (centres unmarked) [Example 118, 2-Fluoro-N-[2-(6-methoxy-quinolin-4-yl)-4,5,6,7-tetrahydro-2H-indazol-5-yl]-4-nitro-benzamide] | > 128 | 4 (≈ 8.67 µM) | > 128 | > 34.7 |
| COc1ccc2nccc(-n3ncc4c3CCC(NC(=O)c3cc5c(cc3F)SCC(=O)N5)C4)c2c1 (centres unmarked) [Example 19, 7-Fluoro-3-oxo-3,4-dihydro-2H-benzo[1,4]thiazine-6-carboxylic acid [1-(6-methoxy-quinolin-4-yl)-4,5,6,7-tetrahydro-1H-indazol-5-yl]-amide] | > 128 | 0.5 (≈ 0.993 µM) | 8 (≈ 15.9 µM) | > 63.5 |
| COc1ccc2nccc(-n3cc4c(n3)CCC(NC(=O)c3ccc5c(c3)OCCN5C)C4)c2c1 (centres unmarked) [Example 79, 4-Methyl-3,4-dihydro-2H-benzo[1,4]oxazine-7-carboxylic acid [2-(6-methoxy-quinolin-4-yl)-4,5,6,7-tetrahydro-2H-indazol-5-yl]-amide] | > 128 | 4 (≈ 8.52 µM) | 8 (≈ 17 µM) | > 34.1 |
| COc1ccc2nccc(-n3cc4c(n3)CCC(NCc3ccc(N(C)C)c(C#N)c3F)C4)c2n1 (centres unmarked) [Example 35, 6-Dimethylamino-2-fluoro-3-{[2-(6-methoxy-[1,5]naphthyridin-4-yl)-4,5,6,7-tetrahydro-2H-indazol-5-ylamino]-methyl}-benzonitrile] | > 128 | < 0.125 | 1 (≈ 2.12 µM) | 4.24 |
| COc1ccc2nccc(-n3cc4c(n3)CCC(NC(=O)/C=C/c3ccc(Cl)c(Cl)c3)C4)c2n1 (centres unmarked) [Example 92, 3-(3,4-Dichloro-phenyl)-N-[2-(6-methoxy-[1,5]naphthyridin-4-yl)-4,5,6,7-tetrahydro-2H-indazol-5-yl]-acrylamide] | > 128 | 0.5 (≈ 1.01 µM) | > 128 | > 32.4 |
| COc1ccc2nccc(-n3cc4c(n3)CCC(NCc3ccc(N5CCCCC5)cc3)C4)c2n1 (centres unmarked) [Example 86, [2-(6-Methoxy-[1,5]naphthyridin-4-yl)-4,5,6,7-tetrahydro-2H-indazol-5-yl]-(4-piperidin-1-yl-benzyl)-amine] | > 128 | 4 (≈ 8.54 µM) | 4 (≈ 8.54 µM) | 4.27 |
| COc1ccc2nccc(-n3cc4c(n3)CCC(NC/C=C/c3cccnc3)C4)c2n1 (centres unmarked) [Example 47, [2-(6-Methoxy-[1,5]naphthyridin-4-yl)-4,5,6,7-tetrahydro-2H-indazol-5-yl]-(3-pyridin-3-yl-allyl)-amine] | 128 (≈ 310 µM) | 1 (≈ 2.42 µM) | 4 (≈ 9.7 µM) | 4.85 |
